Experimental data taken from PubChem BioAssay AID2060502 (Molecular Pharmacology Branch, DTP, NCI, 2025).
pIC50: −log10 of the molar value. “And” between values parts separate entries of the source, which are not always exact repeats. Equal values may be shown once.

Test system: 885724-159-R-J1-PDC complex spheroid viability
Assay: Anticancer human tumor 885724-159-R-J1-PDC patient-derived pancreatic adenocarcinoma cell line growth inhibition [GQUAD]
Details: for viability, T/C: stronger effect = lower value; active = viability on the fitted dose curve at most 10% of control; inactive = the rest
Excerpt: DNA G-quadruplex Stabilizer Agents in Combinations in Complex Spheroids
A high-throughput screen of multi-cell type tumor spheroids was designed to identify active combinations of DNA G-quadruplex stabilizer agents and targeted small molecules. Complex spheroids include a stromal component modeled by human endothelial cells (HUVEC) and fibroblasts modeled by human mesenchymal stem cells (MSCs). The concentration ranges selected for each drug and investigational agent were based upon clinically achievable concentrations if the clinical Cmax of the agent was known.
Compounds. The drugs and investigational agents: pidnarulex (CX-5461; NSC782164), APTO-253 (NSC789042), BRACO-19 (NSC847499), peposertib (NSC802822), ceralasertib (NSC780249), elimusertib (NSC800525), camonsertib (NSC841442), AZD-1390 (NSC803789), olaparib (NSC753686), talazoparib (NSC767125), ART-558 (NSC835418), sotorasib (NSC818433), MRTX-1133 (NSC836407), SN-38 (NSC673596), topotecan (NSC609699), etoposide (NSC141540), doxorubicin (NSC123127), gemcitabine (NSC613327), 5-fluorouracil (NSC19893), paclitaxel (NSC125973), vemurafenib (NSC761431), panobinostat (NSC761190), R-306465 (JNJ-16241199; NSC773264), adavosertib (NSC754352), TP-3654 (NSC805149), carboplatin (NSC241240), KSQ-4279 (NSC840948), and staurosporine (NSC755774) were obtained from the National Cancer Institute (NCI) Developmental Therapeutics Program Chemical Repository (34). The FDA-approved anticancer drug set is available from the NCI Developmental Therapeutics Program. […] The stock solutions were prepared in dimethyl sulfoxide (DMSO, Sigma-Aldrich, St. Louis, MO, cat. D2650) at 800-fold the tested concentration and stored at -70 degrees C prior to their use. All drugs and investigational agents were tested over a range starting from a high concentration at or near the clinical Cmax and decreasing in half-log increments. If the clinical Cmax for an agent had not been determined, the highest concentration tested was 10 microM.
2.3 Cell Culture. All cells were maintained in an incubator at 37 degrees C and 5% CO2 with 95% humidity. The PDC lines were cultured according to standard operating procedures established by the NCI PDMR. All PDCs were thawed and cultured in Matrigel-coated flasks prepared with a working solution of 1X Ham's F-12 nutrient mix, without supplementation (Invitrogen, cat. 11765054), 100 U/mL penicillin-streptomycin (Invitrogen, cat. 15140122), and 2.5% Matrigel (Corning Inc., cat. 354248) for the first three passages. The 857933-349-R-J2-PDC line was cultured in 6C/Colon 1B media, which includes advanced DMEM/F-12 (Thermo Fisher Scientific, cat. 12634028), 10 mM HEPES (Thermo Fisher Scientific, cat. 15630080), 1X GlutaMAX supplement (Thermo Fisher Scientific, cat. 35050061), 0.1 mg/mL primocin (InvivoGen, cat. ant-pm-2), 10% defined fetal bovine serum, heat inactivated (HyClone Laboratories Inc., cat. SH30070.03HI), 50% L-WRN conditioned media (ATCC, cat. CRL-3276), 1.25 mM N-Acetyl-L-cysteine (Sigma-Aldrich, cat. A9165), 10 mM nicotinamide (Sigma-Aldrich, cat. N0636), 1X B-27 supplement (Thermo Fisher Scientific, cat. 17504044), 1X N-2 supplement (Thermo Fisher Scientific, cat. 17502048), 10 microM Y-27632 dihydrochloride (Tocris Bioscience, cat. 1254), and 50 ng/mL human EGF recombinant protein (Thermo Fisher Scientific, cat. PHG0311). The 485176-168-R4-J1-PDC line was cultured in Panc media, which includes all 6C/Colon 1B media components plus 100 ng/mL human FGF-10 (Thermo Fisher Scientific, cat. 100-26), 500 nM SB-431542 (Selleckchem, cat. S1067), and gastrin (Tocris, cat. 3006).
[…]
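Note: spheroids exposed to agents for seven days before readout.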
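Throughout, for viability, T/C: percent of vehicle control viability where 100% = DMSO wells.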

O=c1[nH]cc(F)c(=O)[nH]1
inactive: viability, T/C (compound 0.0316 µM) 96.3% and 85.1% and 106% | viability, T/C (compound 0.1 µM) 100% and 95.1% and 93.2% | viability, T/C (compound 0.316 µM) 96.9% and 89% and 95.5% | viability, T/C (compound 1 µM) 91.2% and 94% and 92.8% | viability, T/C (compound 3.16 µM) 94.3% and 94.6% and 93.9% | viability, T/C (compound 10 µM) 88.3% and 87.7% and 92%
< 5.00: pIC50 (curve of compound)

COc1cc(C2c3cc4c(cc3C(OC3OC5COC(C)OC5C(O)C3O)C3COC(=O)C23)OCO4)cc(OC)c1O (stereo not given)
inactive: viability, T/C (compound 0.0316 µM) 91.7% and 104% and 96.9% | viability, T/C (compound 0.1 µM) 109% and 103% and 96.3% | viability, T/C (compound 0.316 µM) 97.6% and 98.6% and 86.9% | viability, T/C (compound 1 µM) 88.8% and 96.8% and 89% | viability, T/C (compound 3.16 µM) 88.5% and 77.7% and 77.3% | viability, T/C (compound 10 µM) 85.7% and 76.8% and 76.7%
< 5.00: pIC50 (curve of compound)

Cn1ncnc1[C@H]1c2n[nH]c(=O)c3cc(F)cc(c23)N[C@@H]1c1ccc(F)cc1
< 6.50: pIC50 (curve of compound)
inactive: viability, T/C (compound 0.000999 µM) 93.4% and 97.4% and 94.5% | viability, T/C (compound 0.00316 µM) 108% and 94.8% and 82.2% | viability, T/C (compound 0.00999 µM) 87.3% and 97.6% and 97.2% | viability, T/C (compound 0.0316 µM) 92.5% and 97.9% and 93.9% | viability, T/C (compound 0.0999 µM) 88.5% and 97.7% and 103% | viability, T/C (compound 0.316 µM) 89.2% and 88% and 94.4%

CC(C)(O)C1CCC(Nc2ccc3ncc(-c4cccc(C(F)(F)F)c4)n3n2)CC1 (stereo not given)
5.35 and 5.59 and 5.65: pIC50 (curve of compound)
inactive: viability, T/C (compound 0.0316 µM) 110% and 93.1% and 96.4% | viability, T/C (compound 0.1 µM) 95% and 90.9% and 102% | viability, T/C (compound 0.316 µM) 85.7% and 91.3% and 93.8% | viability, T/C (compound 1 µM) 75.3% and 74.9% and 73.6% | viability, T/C (compound 3.16 µM) 45.3% and 41.7% and 38.7% | viability, T/C (compound 10 µM) 46% and 47.1% and 39.8%

COc1ccc([C@@H](O)c2cc(-c3ncnc4cc(N5CCOCC5)ccc34)c(F)cc2Cl)nn1 + Cc1cnc(CNC(=O)c2c(=O)c3ccc(N4CCCN(C)CC4)nc3n3c2sc2ccccc23)cn1
5.34: pIC50 (curve of first compound, second compound 0.316 µM)
5.54: pIC50 (curve of first compound, second compound 3.16 µM)
5.27: pIC50 (curve of first compound, second compound 0.0316 µM)
5.21: pIC50 (curve of first compound, second compound 0.1 µM)
inactive: viability, T/C (second compound 0.0316 µM, first compound 0.0316 µM) 107% | viability, T/C (second compound 0.0316 µM, first compound 0.1 µM) 112% | viability, T/C (second compound 0.0316 µM, first compound 0.316 µM) 91.5% | viability, T/C (second compound 0.0316 µM, first compound 1 µM) 92.3% | viability, T/C (second compound 0.0316 µM, first compound 3.16 µM) 61.6% | viability, T/C (second compound 0.0316 µM, first compound 10 µM) 34.9% | viability, T/C (second compound 0.1 µM, first compound 0.0316 µM) 109% | viability, T/C (second compound 0.1 µM, first compound 0.1 µM) 96.7% | viability, T/C (second compound 0.1 µM, first compound 0.316 µM) 88.1% | viability, T/C (second compound 0.1 µM, first compound 1 µM) 88.8% | viability, T/C (second compound 0.1 µM, first compound 3.16 µM) 67.5% | viability, T/C (second compound 0.1 µM, first compound 10 µM) 37% | viability, T/C (second compound 0.316 µM, first compound 0.0316 µM) 104% | viability, T/C (second compound 0.316 µM, first compound 0.1 µM) 98.9% | viability, T/C (second compound 0.316 µM, first compound 0.316 µM) 102% | viability, T/C (second compound 0.316 µM, first compound 1 µM) 82.9% | viability, T/C (second compound 0.316 µM, first compound 3.16 µM) 58.8% | viability, T/C (second compound 0.316 µM, first compound 10 µM) 32.9% | viability, T/C (second compound 1 µM, first compound 0.0316 µM) 93.5% | viability, T/C (second compound 1 µM, first compound 0.1 µM) 81.5% | viability, T/C (second compound 1 µM, first compound 0.316 µM) 75.9% | viability, T/C (second compound 1 µM, first compound 1 µM) 75.7% | viability, T/C (second compound 1 µM, first compound 3.16 µM) 51.9% | viability, T/C (second compound 1 µM, first compound 10 µM) 35.1% | viability, T/C (second compound 3.16 µM, first compound 0.0316 µM) 78.6% | viability, T/C (second compound 3.16 µM, first compound 0.1 µM) 71.2% | viability, T/C (second compound 3.16 µM, first compound 0.316 µM) 70.4% | viability, T/C (second compound 3.16 µM, first compound 1 µM) 62.4% | viability, T/C (second compound 3.16 µM, first compound 3.16 µM) 49.9% | viability, T/C (second compound 3.16 µM, first compound 10 µM) 24.6% | viability, T/C (second compound 10 µM, first compound 0.0316 µM) 73.2% | viability, T/C (second compound 10 µM, first compound 0.1 µM) 77.9% | viability, T/C (second compound 10 µM, first compound 0.316 µM) 67.6% | viability, T/C (second compound 10 µM, first compound 1 µM) 59.7% | viability, T/C (second compound 10 µM, first compound 3.16 µM) 47.5% | viability, T/C (second compound 10 µM, first compound 10 µM) 21.2%
5.63: pIC50 (curve of first compound, second compound 10 µM)
5.38: pIC50 (curve of first compound, second compound 1 µM)
